Measured values: US6140504A, “Substituted intermediate compounds for the preparation of n-[(aminoiminomethyl or aminomethyl)phenyl]propyl amides” (Aventis Pharmaceuticals Products Inc., priority 2000, dated 2000)

Key:
Format in all cases: biochemical
Details in all cases: apparent Ki via Cheng-Prusoff from IC50; room temperature, 1 nM enzyme
factor Xa = factor Xa (Homo sapiens, UniProt P00742); experiment: Enzyme assay, inhibition of factor Xa using purified enzyme (chromogenic peptide-p-nitroanilide substrate)
Sequence of factor Xa (P00742 235-488 limits assumed): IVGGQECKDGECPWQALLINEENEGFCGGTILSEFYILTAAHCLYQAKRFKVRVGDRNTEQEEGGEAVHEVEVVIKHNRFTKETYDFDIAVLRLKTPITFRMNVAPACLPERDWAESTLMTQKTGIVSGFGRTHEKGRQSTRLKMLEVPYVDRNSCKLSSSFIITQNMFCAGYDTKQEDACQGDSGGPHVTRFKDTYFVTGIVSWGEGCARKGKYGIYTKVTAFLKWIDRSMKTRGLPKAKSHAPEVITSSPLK
Sequence of factor Xa (P00742 41-179 partner limits assumed): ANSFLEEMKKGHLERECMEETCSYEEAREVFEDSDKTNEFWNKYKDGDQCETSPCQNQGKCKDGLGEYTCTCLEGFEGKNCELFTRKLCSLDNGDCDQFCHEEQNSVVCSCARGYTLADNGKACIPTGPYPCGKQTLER
Protocol: (§1) All enzyme as says are carried out at room temperature in 96-well microtiter plates using a final enzyme concentration of 1 nM. The concentrations of factor Xa and thrombin are determined by active site titration and the concentrations of all other enzymes are based on the protein concentration supplied by the manufacturer. Compounds according to the invention are dissolved in DMSO, diluted with their respective buffers and assayed at a maximal final DMSO concentration of 1.25%. Compound dilutions are added to wells containing buffer and enzyme and pre-equilibrated for between 5 and 30 minutes. The enzyme reactions are initiated by the addition of substrate and the color developed from the hydrolysis of the peptide-p-nitroanilide substrates is monitored continuously for 5 minutes at 405 nm on a Vmax microplate reader (Molecular Devices). Under these conditions, less than 10% of the substrate is utilized in all assays. […] The apparent Ki values are then determined according to the Cheng-Prusoff equation (IC50=Ki[1+[S]J/Km]) assuming competitive inhibition kinetics.

trypsin = target: T1, trypsin (Bos taurus, UniProt P00760); experiment: Enzyme assay, inhibition of trypsin using purified enzyme (chromogenic peptide-p-nitroanilide substrate)
T1 construct: factor Xa, thromb in, trypsin; purchased
T1 sequence (P00760 24-246): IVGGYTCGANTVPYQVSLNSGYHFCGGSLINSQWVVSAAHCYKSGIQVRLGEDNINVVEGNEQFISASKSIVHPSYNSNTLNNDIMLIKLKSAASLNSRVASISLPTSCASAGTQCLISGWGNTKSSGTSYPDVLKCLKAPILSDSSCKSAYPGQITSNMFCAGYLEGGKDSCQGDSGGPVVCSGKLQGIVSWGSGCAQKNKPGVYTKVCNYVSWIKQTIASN
Protocol: as §1

thrombin = thrombin (Homo sapiens, UniProt P00734); experiment: Enzyme assay, inhibition of thrombin using purified enzyme (chromogenic peptide-p-nitroanilide substrate)
Protocol: as §1, with “Compound dilutions are added to wells containing buffer and enzyme and pre-equilibrated for between 5 and 30 minutes.” left out

Ki (factor Xa) | Ki (trypsin) | Ki (thrombin) | Structure (SMILES)
19 nM | 46 nM | 1230 nM | COc1ccc(-c2ccc(C(=O)NC(CCc3ccccc3)C(COC(C)=O)Cc3cccc(C(=N)N)c3)cc2)cc1OC (stereo not drawn) [Compound 167]
27 nM | 1720 nM | 2710 nM | CN(C)Cc1cccc(-c2ccc(C(=O)NC(Cc3ccccc3)C(CO)Cc3cccc(C(=N)N)c3)cc2)c1 (stereo not drawn) [Compound 184]
94 nM | 129 nM | 477 nM | CC(=O)OCC(Cc1cccc(C(=N)N)c1)C(/C=C/c1ccccc1)NC(=O)c1ccc(-c2ccccc2)cc1 (stereo not drawn) [Compound 45]
